“Also recorded” adds a separate entry of the source. Where no end group is shown, it is not given here.
T1: CFP-RapA (Bacillus subtilis 168, UniProt Q00828 1-378)
T1 construct: RapA, Rap-family RRNPP-type receptor (response regulator aspartate phosphatase A) of Bacillus subtilis; rapA amplified from B. subtilis 168 genomic DNA; ecfp(Bs) is joined to the N-terminus of RapA by a GSGGV linker; also called RapA receptor; RapA-CFP; source: B. subtilis reporter strain BIB625 (ΔrapA-phrA Δspo0F), IPTG-induced from the amyE locus, in living cells; not shown: eCFP(Bs), …
T1 sequence (looked up): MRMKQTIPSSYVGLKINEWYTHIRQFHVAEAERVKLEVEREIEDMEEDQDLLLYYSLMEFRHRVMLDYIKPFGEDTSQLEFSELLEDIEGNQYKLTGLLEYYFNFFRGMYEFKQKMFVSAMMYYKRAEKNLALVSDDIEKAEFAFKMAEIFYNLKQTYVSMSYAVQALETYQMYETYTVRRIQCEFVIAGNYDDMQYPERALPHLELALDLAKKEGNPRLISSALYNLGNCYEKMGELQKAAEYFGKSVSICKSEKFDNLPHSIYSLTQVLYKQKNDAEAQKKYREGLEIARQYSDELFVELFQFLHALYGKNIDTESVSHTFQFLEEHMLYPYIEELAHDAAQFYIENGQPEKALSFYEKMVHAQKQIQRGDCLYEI


Experiments:
[1] = system: reporter cells BIB625 (RapA-Spo0F FRET); experiment: Bioassay of supernatants: PhrA depletion from medium measured with fresh reporter cells; format: cell-based, Bacillus subtilis; conditions: 10 nM PhrA, within a few minutes
Method: Induction of FRET reporters: Reporter cells were inoculated from a single colony into 5 ml of LB medium with antibiotics and incubated on a rotary shaker (Infors HT Multitron) at 180 rpm and 37 °C for 7 h. Cells were resuspended at OD600 nm = 0.003 in 5 ml of S7_50 medium and incubated for 16 h overnight. Expression of the fusion proteins was induced by resuspending the reporter cells at an OD600 nm =0.04 in 10 ml of fresh S7_50 supplemented with 100 µM IPTG in a 100-ml flask. When applicable, protein expression from a xylose-inducible promoter was induced by adding xylose at a final concentration of 1% (w/v). Cells were grown to a final OD600 nm ~1.6.
Bioassay and supernatant analysis: The supernatants were collected after centrifugation of stimulated cells. […] The supernatants were then filtered through a 0.2-µm PES membrane, and analyzed as described above with the following modification. To increase the sensitivity of the bioassay, the volume of analyzed supernatant and the incubation time were increased to VS = 1950 µl and tB = 20 min + 1 min, respectively. […]
The FRET efficiency was determined using the formula:5 FRET=CFPpost−CFPpre/CFPpost⋅100%, where CFPpre and CFPpost denote the emission levels before and after acceptor photobleaching, respectively. […] CFPpre is then evaluated at the end of the bleaching period by extrapolating the linear fit accordingly (see Fig. 2b). […]

[2] = PhrA stability in cell-free supernatant (Supplementary Fig. 5B); format: in vitro ADME
Method: Bioassay and supernatant analysis: The supernatants were collected after centrifugation of stimulated cells. Aliquots (VS = 450 µl) of the cell-free supernatants were mixed with 50 µl of a 10× suspension of fresh unstimulated reporter cells, for tB = 5 min + 1 min (time for incubation plus centrifugation) at room temperature and then processed as described above. To detect extracellular PhrA in S7_50 cultures, wild-type cells (BIB224) were grown for 5 h to an OD600 nn ~ 1.6 and pelleted by centrifugation. The supernatants were then filtered through a 0.2-µm PES membrane, and analyzed as described above with the following modification. To increase the sensitivity of the bioassay, the volume of analyzed supernatant and the incubation time were increased to VS = 1950 µl and tB = 20 min + 1 min, respectively.

CFP-RapA = target: T1, CFP-RapA; experiment: FRET or BRET; loss of CFP-RapA/Spo0F-YFP FRET in B. subtilis reporter cells against PhrA; EC50 is the intracellular PhrA concentration of the half-maximal response, inferred by fitting all data of Figs. 4 and 5 to the pump-probe model (Hill function); conditions: one partner purified

Molecule	extracellular PhrA level after stimulation [1]	time for which bioassay FRET remained unchanged (stability) ([2]; 10 nM PhrA in cell-free supernatant, room temperature, bioassay read-out, ne = 3)	bioassay FRET during incubation in cell-free supernatant ([2]; 10 nM PhrA in cell-free supernatant, room temperature, up to at least 8 h, ne = 3)	extracellular stability ([2]; 10 nM PhrA, cell-free supernatant)	EC50 (CFP-RapA) [µM]
ARNQT [PhrA]	below the detection limit of the bioassay	at least 8 h	~ 7%	stable in cell-free supernatants; also recorded: stable for hours	–
ARNQT (PhrA, the mature linear pentapeptide derived from the phrA gene product of Bacillus subtilis; also called PhrA pentapeptide; ARNQT; source: synthetic peptide (Peptides and Elephant, purity >95%)) [PhrA]	–	–	–	–	38

— PMC7055314, “Ratiometric population sensing by a pump-probe signaling system in Bacillus subtilis” (Nature Communications, 2020)
